ChEMBL document CHEMBL1147787, “Synthesis and preliminary antitumor activity evaluation of a DHA and doxorubicin conjugate” (Bioorg Med Chem Lett, 2006)
Active and inactive are the calls of the source. The calls are words filed in the database; no cut-off is given here.

Columns and labels:
[1] = system: Mus musculus; test: Antitumor activity in BDF1 mouse bearing B16 melanoma assessed as inhibition of tumor growth at 5 mg/kg, ip relative to control; assay type: functional; details: route intraperitoneal
[2] = system: Mus musculus; test: Antitumor activity in BDF1 mouse bearing L1210 leukemia assessed as loss of body weight at 8 ug/kg, ip; assay type: functional
[3] = system: Mus musculus; test: Antitumor activity in BDF1 mouse bearing L1210 leukemia assessed as survival for 30 days at 8 ug/kg, ip; assay type: functional, organism-based
[4] = system: Mus musculus; test: Antitumor activity in BDF1 mouse bearing L1210 leukemia assessed as loss of body weight at 5 ug/kg, ip; assay type: functional
[5] = system: L1210; test: Antitumor activity against mouse L1210 cell line assessed as inhibition of [3H]thymidine incorporation; assay type: functional, cell-based
[6] = system: Mus musculus; test: Antitumor activity in BDF1 mouse bearing L1210 leukemia assessed as survival for 30 days at 5 ug/kg, ip; assay type: functional, organism-based
[7] = system: Mus musculus; test: Antitumor activity in BDF1 mouse bearing B16 melanoma assessed as loss of body weight at 5 mg/kg, ip; assay type: functional; details: route intraperitoneal
[8] = system: Mus musculus; test: Antitumor activity in BDF1 mouse bearing L1210 leukemia assessed as increase in life span at 5 ug/kg, ip relative to control; assay type: functional
[9] = system: Mus musculus; test: Antitumor activity in BDF1 mouse bearing B16 melanoma assessed as loss of body weight at 30 mg/kg, ip; assay type: functional; details: route intraperitoneal
[10] = system: Mus musculus; test: Antitumor activity in BDF1 mouse bearing L1210 leukemia assessed as increase in life span at 16 ug/kg, ip relative to control; assay type: functional
[11] = system: Mus musculus; test: Antitumor activity in BDF1 mouse bearing L1210 leukemia assessed as survival for 30 days at 32 ug/kg, ip; assay type: functional, organism-based
[12] = system: Mus musculus; test: Antitumor activity in BDF1 mouse bearing L1210 leukemia assessed as increase in life span at 8 ug/kg, ip relative to control; assay type: functional
[13] = system: Mus musculus; test: Antitumor activity in BDF1 mouse bearing B16 melanoma assessed as loss of body weight at 20 mg/kg, ip; assay type: functional; details: route intraperitoneal
[14] = system: Mus musculus; test: Antitumor activity in BDF1 mouse bearing L1210 leukemia assessed as loss of body weight at 16 ug/kg, ip; assay type: functional
[15] = system: Mus musculus; test: Antitumor activity in BDF1 mouse bearing B16 melanoma assessed as inhibition of tumor growth at 20 mg/kg, ip relative to control; assay type: functional; details: route intraperitoneal
[16] = system: Mus musculus; test: Antitumor activity in BDF1 mouse bearing B16 melanoma assessed as inhibition of tumor growth at 30 mg/kg, ip relative to control; assay type: functional; details: route intraperitoneal
[17] = system: Mus musculus; test: Antitumor activity in BDF1 mouse bearing L1210 leukemia assessed as increase in life span at 32 ug/kg, ip relative to control; assay type: functional
[18] = system: Mus musculus; test: Antitumor activity in BDF1 mouse bearing L1210 leukemia assessed as loss of body weight at 32 ug/kg, ip; assay type: functional

| Compound | inhibition in vivo at 5 mg/kg [1] | Activity [2] | Activity [3] | Activity [4] | IC50 [5] | Activity [6] | Activity [7] | Activity [8] | Activity [9] | Activity [10] | Activity [11] | Activity [12] | Activity [13] | Activity [14] | inhibition in vivo at 20 mg/kg [15] | inhibition in vivo at 30 mg/kg [16] | Activity [17] | Activity [18] |
| --- | --- | --- | --- | --- | --- | --- | --- | --- | --- | --- | --- | --- | --- | --- | --- | --- | --- | --- |
| COc1cccc2c1C(=O)c1c(O)c3c(c(O)c1C2=O)C[C@@](O)(C(=O)CO)C[C@@H]3O[C@H]1C[C@H](N)[C@H](O)[C@H](C)O1 [DOXORUBICIN] | 35% | -19% | inactive | -7% | 150 nM | inactive | -10% | 53% | – | – | – | – | – | – | – | – | – | – |
| CC/C=C/C/C=C/C/C=C/C/C=C/C/C=C/C/C=C/CCC(=O)N/N=C(\CO)[C@]1(O)Cc2c(O)c3c(c(O)c2[C@@H](OC2C[C@H](N)[C@H](O)[C@H](C)O2)C1)C(=O)c1c(OC)cccc1C3=O.Cl (stereo partly specified) | – | -2% | inactive | – | 1400 nM | – | – | – | -6% | 107% | inactive | 53% | -6% | -4% | 53% | 70% | 80% | -11% |
